# Source: ChEMBL document CHEMBL5442219
# Columns and labels:
# Settings in all cases: Compound concentration 10 µM
# [1] = molecular target: T1, Alpha-2A adrenergic receptor (Homo sapiens) (UniProt P08913)
# T1 sequence (whole entry): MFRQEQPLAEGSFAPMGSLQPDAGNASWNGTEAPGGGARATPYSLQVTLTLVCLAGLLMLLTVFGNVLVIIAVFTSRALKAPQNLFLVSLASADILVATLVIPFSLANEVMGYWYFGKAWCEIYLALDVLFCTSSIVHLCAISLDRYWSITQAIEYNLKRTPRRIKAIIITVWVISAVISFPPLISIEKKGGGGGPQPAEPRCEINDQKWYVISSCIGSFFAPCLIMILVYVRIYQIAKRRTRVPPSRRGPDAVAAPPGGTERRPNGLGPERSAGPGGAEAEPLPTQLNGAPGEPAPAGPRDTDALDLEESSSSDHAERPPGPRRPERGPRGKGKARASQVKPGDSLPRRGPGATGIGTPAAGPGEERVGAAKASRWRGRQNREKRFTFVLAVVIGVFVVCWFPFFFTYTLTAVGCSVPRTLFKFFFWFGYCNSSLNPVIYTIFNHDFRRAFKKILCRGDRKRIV
# [2] = molecular target: T2, Alpha-2C adrenergic receptor (Homo sapiens) (UniProt P18825)
# T2 sequence (whole entry): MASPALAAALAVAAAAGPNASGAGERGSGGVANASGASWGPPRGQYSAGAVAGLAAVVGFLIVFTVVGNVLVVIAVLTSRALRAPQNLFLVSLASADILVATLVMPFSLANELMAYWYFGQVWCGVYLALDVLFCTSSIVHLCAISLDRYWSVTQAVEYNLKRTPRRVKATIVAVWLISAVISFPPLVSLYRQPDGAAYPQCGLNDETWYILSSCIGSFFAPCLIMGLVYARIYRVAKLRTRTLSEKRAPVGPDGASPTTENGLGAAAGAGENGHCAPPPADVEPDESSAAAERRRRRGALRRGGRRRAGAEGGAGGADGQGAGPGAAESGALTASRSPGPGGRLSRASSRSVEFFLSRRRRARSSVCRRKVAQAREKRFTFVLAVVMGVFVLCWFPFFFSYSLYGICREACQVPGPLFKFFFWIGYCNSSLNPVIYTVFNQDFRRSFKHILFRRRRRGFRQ
# [3] = molecular target: Beta-2 adrenergic receptor (Homo sapiens) (UniProt P07550)
# [4] = molecular target: D(3) dopamine receptor (Homo sapiens) (UniProt P35462)
# [5] = molecular target: Histamine H4 receptor (Homo sapiens) (UniProt Q9H3N8)
# [6] = molecular target: 5-hydroxytryptamine receptor 1B (Homo sapiens) (UniProt P28222)
# [7] = molecular target: 5-hydroxytryptamine receptor 1D (Homo sapiens) (UniProt P28221)
# [8] = molecular target: 5-hydroxytryptamine receptor 1E (Homo sapiens) (UniProt P28566)
# [9] = molecular target: T3, 5-hydroxytryptamine receptor 2C (Homo sapiens) (UniProt P28335)
# T3 sequence (whole entry): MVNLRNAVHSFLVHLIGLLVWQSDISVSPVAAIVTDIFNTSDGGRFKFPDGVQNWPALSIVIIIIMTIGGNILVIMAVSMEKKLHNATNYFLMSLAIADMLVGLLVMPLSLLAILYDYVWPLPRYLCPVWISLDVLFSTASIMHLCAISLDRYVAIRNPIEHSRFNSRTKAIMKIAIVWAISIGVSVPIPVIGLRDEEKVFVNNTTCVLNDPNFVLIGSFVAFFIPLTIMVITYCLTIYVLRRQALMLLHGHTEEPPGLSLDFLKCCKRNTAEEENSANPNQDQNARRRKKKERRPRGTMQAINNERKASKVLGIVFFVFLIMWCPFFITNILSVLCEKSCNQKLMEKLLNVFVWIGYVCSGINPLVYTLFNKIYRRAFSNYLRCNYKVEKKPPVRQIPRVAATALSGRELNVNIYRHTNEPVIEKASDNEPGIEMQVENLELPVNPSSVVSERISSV
# [10] = molecular target: T4, 5-hydroxytryptamine receptor 3A (Homo sapiens) (UniProt P46098)
# T4 sequence (whole entry): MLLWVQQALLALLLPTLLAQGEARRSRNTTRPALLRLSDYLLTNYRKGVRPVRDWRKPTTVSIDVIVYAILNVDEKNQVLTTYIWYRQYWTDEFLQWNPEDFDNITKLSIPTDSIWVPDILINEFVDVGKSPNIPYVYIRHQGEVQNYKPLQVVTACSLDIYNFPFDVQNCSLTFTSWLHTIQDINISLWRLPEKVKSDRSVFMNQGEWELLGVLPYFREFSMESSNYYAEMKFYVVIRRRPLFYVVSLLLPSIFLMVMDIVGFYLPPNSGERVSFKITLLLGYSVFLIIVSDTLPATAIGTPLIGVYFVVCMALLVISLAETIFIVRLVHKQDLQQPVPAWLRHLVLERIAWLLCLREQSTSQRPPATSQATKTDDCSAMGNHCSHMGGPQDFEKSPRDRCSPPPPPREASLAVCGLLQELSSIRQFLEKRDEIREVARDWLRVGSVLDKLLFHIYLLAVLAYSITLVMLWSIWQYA
# [11] = molecular target: 5-hydroxytryptamine receptor 5A (Homo sapiens) (UniProt P47898)
# [12] = molecular target: 5-hydroxytryptamine receptor 7 (Homo sapiens) (UniProt P34969)
# [13] = molecular target: Kappa-type opioid receptor (Homo sapiens) (UniProt P41145)
# [14] = molecular target: Sodium-dependent noradrenaline transporter (Homo sapiens) (UniProt P23975)
# [15] = molecular target: Sodium-dependent dopamine transporter (Homo sapiens) (UniProt Q01959)
# [16] = molecular target: Translocator protein (Homo sapiens) (UniProt P30536)
# [17] = molecular target: Histamine H1 receptor (Homo sapiens) (UniProt P35367)
# [18] = molecular target: 5-hydroxytryptamine receptor 2A (Homo sapiens) (UniProt P28223)
# Chain of 5-hydroxytryptamine receptor 2A (Homo sapiens) (P28223 whole entry): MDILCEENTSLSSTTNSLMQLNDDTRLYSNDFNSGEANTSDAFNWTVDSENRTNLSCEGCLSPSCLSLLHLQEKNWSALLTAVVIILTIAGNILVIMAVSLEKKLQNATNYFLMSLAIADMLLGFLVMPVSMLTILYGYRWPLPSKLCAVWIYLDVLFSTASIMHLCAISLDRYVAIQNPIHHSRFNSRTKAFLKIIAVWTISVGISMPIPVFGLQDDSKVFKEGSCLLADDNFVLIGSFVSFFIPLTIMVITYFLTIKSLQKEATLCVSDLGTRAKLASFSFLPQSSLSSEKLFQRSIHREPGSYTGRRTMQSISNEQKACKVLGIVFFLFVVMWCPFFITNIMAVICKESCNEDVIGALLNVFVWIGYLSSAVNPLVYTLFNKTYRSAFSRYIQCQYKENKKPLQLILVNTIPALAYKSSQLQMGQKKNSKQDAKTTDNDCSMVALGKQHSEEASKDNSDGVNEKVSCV
# Chain of Kappa-type opioid receptor (Homo sapiens) (P41145 whole entry): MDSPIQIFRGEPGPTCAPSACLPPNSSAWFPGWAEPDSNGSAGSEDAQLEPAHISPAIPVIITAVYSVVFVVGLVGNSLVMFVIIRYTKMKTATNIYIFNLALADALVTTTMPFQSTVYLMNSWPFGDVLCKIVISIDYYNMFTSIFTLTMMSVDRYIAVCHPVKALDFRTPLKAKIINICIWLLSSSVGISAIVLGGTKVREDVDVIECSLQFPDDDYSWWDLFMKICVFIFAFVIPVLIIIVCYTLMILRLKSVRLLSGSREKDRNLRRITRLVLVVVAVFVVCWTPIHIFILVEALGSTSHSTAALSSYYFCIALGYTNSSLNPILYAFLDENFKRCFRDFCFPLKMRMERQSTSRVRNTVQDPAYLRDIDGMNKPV
# Chain of 5-hydroxytryptamine receptor 1D (Homo sapiens) (P28221 whole entry): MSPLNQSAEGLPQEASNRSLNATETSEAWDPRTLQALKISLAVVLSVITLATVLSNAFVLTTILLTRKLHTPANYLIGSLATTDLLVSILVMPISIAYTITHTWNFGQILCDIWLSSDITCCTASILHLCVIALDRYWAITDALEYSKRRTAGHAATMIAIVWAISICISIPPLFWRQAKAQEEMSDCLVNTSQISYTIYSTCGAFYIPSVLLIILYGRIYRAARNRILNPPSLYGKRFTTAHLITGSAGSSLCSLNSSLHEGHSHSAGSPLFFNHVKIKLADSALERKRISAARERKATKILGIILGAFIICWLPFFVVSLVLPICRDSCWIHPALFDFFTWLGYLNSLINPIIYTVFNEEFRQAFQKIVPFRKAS
# Chain of 5-hydroxytryptamine receptor 1B (Homo sapiens) (P28222 whole entry): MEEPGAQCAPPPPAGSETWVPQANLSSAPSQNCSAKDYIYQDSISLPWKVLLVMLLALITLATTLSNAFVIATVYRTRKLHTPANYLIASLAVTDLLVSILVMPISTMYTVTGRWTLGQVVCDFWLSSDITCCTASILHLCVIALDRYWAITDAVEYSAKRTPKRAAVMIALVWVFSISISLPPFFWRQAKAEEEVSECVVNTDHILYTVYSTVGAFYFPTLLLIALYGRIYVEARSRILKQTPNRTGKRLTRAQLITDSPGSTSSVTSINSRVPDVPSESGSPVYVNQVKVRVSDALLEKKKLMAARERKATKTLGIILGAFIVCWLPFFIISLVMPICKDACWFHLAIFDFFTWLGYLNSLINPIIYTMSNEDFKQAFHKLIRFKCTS
# Chain of Translocator protein (Homo sapiens) (P30536 whole entry): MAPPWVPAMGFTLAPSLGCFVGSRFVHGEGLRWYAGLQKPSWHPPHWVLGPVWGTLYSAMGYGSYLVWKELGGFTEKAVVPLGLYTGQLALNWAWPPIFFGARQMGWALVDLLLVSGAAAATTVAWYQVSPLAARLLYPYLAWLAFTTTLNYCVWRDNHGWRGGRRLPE
# Chain of Histamine H1 receptor (Homo sapiens) (P35367 whole entry): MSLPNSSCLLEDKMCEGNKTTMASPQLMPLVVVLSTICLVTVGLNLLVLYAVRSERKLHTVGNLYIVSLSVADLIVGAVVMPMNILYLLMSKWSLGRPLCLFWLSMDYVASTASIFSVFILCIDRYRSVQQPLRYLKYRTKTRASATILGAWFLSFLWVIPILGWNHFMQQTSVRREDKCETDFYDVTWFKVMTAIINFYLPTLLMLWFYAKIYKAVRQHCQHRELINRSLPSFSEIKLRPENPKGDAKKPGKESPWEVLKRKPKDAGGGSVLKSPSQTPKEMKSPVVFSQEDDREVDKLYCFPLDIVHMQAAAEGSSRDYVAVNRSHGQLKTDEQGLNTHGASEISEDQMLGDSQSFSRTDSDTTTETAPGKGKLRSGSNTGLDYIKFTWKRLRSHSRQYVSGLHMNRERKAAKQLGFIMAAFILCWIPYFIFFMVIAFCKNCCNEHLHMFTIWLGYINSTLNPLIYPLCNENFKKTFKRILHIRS
# Chain of Histamine H4 receptor (Homo sapiens) (Q9H3N8 whole entry): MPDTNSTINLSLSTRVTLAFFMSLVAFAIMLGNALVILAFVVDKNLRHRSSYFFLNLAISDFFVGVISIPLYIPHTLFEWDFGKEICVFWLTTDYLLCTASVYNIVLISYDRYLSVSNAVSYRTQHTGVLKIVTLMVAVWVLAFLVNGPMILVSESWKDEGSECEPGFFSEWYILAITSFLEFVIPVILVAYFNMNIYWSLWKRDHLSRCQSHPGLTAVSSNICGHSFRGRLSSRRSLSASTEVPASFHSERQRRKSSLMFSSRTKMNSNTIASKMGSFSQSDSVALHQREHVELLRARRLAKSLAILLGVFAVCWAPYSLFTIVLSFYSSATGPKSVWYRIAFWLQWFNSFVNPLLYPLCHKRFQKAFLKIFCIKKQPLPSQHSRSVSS
# Chain of 5-hydroxytryptamine receptor 7 (Homo sapiens) (P34969 whole entry): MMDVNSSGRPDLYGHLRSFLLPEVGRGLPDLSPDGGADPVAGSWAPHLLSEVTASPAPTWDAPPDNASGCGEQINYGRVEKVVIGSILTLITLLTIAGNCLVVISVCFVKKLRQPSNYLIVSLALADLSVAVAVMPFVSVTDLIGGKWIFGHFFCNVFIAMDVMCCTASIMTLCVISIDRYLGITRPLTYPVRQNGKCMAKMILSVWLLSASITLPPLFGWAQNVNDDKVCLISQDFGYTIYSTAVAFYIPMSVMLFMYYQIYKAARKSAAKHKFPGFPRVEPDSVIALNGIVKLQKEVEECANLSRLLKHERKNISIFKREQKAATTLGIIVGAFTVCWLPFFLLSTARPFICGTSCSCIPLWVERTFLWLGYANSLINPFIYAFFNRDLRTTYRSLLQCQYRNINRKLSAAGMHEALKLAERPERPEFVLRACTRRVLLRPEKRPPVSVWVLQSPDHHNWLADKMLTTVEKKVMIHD
# Chain of Beta-2 adrenergic receptor (Homo sapiens) (P07550 whole entry, looked up): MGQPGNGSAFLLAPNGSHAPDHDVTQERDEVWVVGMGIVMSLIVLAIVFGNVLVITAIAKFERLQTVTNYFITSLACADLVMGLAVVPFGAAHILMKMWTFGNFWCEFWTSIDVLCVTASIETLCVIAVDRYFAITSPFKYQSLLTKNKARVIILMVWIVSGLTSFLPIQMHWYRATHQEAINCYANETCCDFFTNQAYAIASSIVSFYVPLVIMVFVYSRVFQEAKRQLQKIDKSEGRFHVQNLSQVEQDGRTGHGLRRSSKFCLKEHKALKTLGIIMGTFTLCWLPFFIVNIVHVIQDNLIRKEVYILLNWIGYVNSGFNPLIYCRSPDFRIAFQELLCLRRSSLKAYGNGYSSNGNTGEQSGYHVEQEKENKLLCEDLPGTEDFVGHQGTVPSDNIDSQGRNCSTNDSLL
# Chain of D(3) dopamine receptor (Homo sapiens) (P35462 whole entry): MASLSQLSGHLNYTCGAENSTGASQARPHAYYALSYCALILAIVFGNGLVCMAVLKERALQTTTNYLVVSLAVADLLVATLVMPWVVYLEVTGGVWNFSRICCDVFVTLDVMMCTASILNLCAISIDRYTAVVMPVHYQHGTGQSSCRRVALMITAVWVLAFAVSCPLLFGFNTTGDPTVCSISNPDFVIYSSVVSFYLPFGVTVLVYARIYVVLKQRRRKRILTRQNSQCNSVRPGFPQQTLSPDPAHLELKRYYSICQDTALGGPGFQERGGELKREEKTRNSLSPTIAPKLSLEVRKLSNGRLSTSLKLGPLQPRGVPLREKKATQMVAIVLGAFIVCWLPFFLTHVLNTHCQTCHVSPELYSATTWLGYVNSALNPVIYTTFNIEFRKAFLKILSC
# Chain of Sodium-dependent dopamine transporter (Homo sapiens) (Q01959 whole entry): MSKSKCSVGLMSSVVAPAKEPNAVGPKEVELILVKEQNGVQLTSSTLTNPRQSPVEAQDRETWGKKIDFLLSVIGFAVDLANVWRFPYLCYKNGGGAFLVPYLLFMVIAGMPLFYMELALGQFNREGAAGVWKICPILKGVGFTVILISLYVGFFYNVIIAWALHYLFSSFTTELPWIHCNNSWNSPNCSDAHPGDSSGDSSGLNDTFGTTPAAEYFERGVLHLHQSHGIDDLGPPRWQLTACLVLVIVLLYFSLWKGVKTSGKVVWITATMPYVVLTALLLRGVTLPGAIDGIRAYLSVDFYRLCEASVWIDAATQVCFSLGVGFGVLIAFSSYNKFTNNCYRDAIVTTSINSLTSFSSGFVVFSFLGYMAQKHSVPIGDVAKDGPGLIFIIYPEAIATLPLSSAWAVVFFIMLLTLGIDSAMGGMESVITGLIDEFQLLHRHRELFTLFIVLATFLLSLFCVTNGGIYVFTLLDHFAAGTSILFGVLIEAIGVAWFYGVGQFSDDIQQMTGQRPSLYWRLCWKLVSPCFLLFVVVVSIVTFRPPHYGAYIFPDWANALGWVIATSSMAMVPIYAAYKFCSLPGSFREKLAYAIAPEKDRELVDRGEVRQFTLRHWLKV
# Chain of 5-hydroxytryptamine receptor 5A (Homo sapiens) (P47898 whole entry): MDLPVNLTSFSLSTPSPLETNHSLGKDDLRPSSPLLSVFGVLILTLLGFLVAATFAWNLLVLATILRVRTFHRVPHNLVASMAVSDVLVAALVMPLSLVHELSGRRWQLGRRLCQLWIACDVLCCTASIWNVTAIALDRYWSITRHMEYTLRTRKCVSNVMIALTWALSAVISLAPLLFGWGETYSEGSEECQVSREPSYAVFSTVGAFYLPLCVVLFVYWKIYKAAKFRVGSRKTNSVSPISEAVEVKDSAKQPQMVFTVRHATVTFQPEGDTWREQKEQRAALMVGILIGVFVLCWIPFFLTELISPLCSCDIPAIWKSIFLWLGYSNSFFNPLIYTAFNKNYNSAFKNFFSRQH
Compound,inhibition [1] [%],inhibition [2] [%],inhibition [3] [%],inhibition [4] [%],inhibition [5] [%],inhibition [6] [%],inhibition [7] [%],inhibition [8] [%],inhibition [9] [%],inhibition [10] [%],inhibition [11] [%],inhibition [12] [%],inhibition [13] [%],inhibition [14] [%],inhibition [15] [%],inhibition [16] [%],inhibition [17] [%],inhibition [18] [%]
CC(C)NCC(O)COc1cccc2[nH]ccc12 (stereo not given),29,1.35,100,65.4,-8.33,22,50.9,20,7.77,-0.98,52.6,37.8,46.9,27.1,21.3,38.5,–,–
Clc1cccc(Cl)c1NC1=NCCN1,103,84.7,-4.25,19.4,2.9,13.1,29.5,9.4,55.7,5.96,20.1,77.2,11.2,20.9,20.8,10.8,–,–
CCc1cc2c(cc1CC)CC(NC[C@H](O)c1ccc(O)c3[nH]c(=O)ccc13)C2,42.1,30,94.3,58.8,4.91,34.4,118,-6.64,66.8,-4.69,6.33,-0.79,–,84.6,83.1,–,34.9,61.1
CN1CCC(C(=O)c2cccc(NC(=O)c3c(F)cc(F)cc3F)n2)CC1,19.9,6.36,-3.08,–,-0.15,43.4,80.7,102,6.11,20.9,27.2,52.8,69.2,23.5,42.1,–,16.4,1.42
CN[C@@H]1CCc2[nH]c3ccc(C(N)=O)cc3c2C1,31,–,22.7,47.6,2.79,88.2,72.3,79.1,18.2,24.7,9.03,92,5.76,-1.01,–,-4.51,0.33,16.6
CN1CCC(=C2c3ccccc3CC(=O)c3sccc32)CC1,80.9,42.7,25.3,80.2,26.2,63.1,123,27.9,93.2,84.5,43.5,90.4,20.8,45.1,20.7,6.55,–,–
CN(C)C(=O)N[C@H]1CC[C@H](CCN2CCN(c3cccc(Cl)c3Cl)CC2)CC1,95,98,31.6,–,2.57,93.7,101,48,97.3,6.73,69.8,104,5.62,49.7,52.5,29,98.7,110
CC(C)[C@H](CO)Nc1nc(Nc2cccc(Cl)c2)c2ncn(C(C)C)c2n1,6.44,28.4,-7.15,22.4,11.2,38.1,60.1,–,51,25.4,60.9,11.4,34.6,54.1,17.5,76.5,-4.77,41.8
CCc1nn2c(C)cc(C)nc2c1Cc1ccc(-c2nnc(C3CCNCC3)o2)cc1,42.9,31.1,12.5,-9.36,-1.79,16.6,14.8,12.6,10.1,93.4,3.02,5.87,4.27,-8.38,4.13,–,9.84,-2.43
CN1C[C@H](C(=O)N[C@]2(C)O[C@@]3(O)[C@@H]4CCCN4C(=O)[C@H](Cc4ccccc4)N3C2=O)C[C@@H]2c3cccc4[nH]cc(c34)C[C@H]21,99.6,115,18.1,97.8,3.01,104,98.8,76.1,103,1.05,97.6,91.3,15.5,21.2,5.72,19,–,–
COc1ccccc1N1CCN(CCCCNC(=O)c2ccc3ccccc3c2)CC1,100,111,38.9,–,8.79,93.2,103,27.8,97.9,0.02,76.4,102,35.6,68.2,73.9,78.8,97,-1.42
